The assay addresses T1, human TLR8 (Homo sapiens, UniProt Q9NR97).
T1 construct: host or cells: HEK293 (HEK-Blue)
T1 sequence (Q9NR97 27-1041): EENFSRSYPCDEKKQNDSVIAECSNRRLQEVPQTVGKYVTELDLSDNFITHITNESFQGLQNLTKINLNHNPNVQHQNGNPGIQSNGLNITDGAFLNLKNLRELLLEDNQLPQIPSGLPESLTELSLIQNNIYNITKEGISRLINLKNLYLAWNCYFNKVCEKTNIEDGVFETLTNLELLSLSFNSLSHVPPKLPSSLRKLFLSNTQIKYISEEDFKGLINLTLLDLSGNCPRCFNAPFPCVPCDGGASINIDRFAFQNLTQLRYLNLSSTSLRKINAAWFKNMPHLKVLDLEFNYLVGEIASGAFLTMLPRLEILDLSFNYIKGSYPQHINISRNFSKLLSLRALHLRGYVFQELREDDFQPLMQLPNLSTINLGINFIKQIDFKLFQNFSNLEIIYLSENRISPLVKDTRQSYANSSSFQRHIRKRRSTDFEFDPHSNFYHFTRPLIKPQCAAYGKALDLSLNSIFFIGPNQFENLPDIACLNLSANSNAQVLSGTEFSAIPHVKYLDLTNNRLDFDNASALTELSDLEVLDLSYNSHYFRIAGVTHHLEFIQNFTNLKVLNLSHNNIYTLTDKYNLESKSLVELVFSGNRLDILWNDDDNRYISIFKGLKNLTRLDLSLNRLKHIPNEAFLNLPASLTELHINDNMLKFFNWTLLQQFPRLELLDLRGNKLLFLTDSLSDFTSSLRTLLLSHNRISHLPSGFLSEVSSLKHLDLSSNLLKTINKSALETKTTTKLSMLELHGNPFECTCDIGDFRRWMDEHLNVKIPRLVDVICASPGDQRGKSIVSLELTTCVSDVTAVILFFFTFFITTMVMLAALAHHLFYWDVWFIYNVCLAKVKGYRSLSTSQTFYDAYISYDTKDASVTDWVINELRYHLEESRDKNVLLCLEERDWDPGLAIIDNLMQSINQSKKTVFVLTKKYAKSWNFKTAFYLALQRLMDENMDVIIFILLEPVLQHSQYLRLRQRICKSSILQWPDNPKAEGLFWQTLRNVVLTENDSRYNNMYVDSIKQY
Put plainly: HEK293-Blue-hTLR-8 cells assay (SEAP reporter, R848 stimulation). The format is cell-based. The note with it: HEK293-Blue-hTLR8 cells, R848, 20 hrs; read-out: HEK/hTLR8 IC50. The source says:
A stable HEK293-Blue-hTLR-8 cell line was purchased from InvivoGen (Cat.#: hkb-htlr8, San Diego, California, USA). These cells were originally designed for studying the stimulation of human TLR8 by monitoring the activation of NF-κB. A SEAP (secreted embryonic alkaline phosphatase) reporter gene was placed under the control of the IFN-β minimal promoter fused to five NF-κB and AP-1-binding sites. The SEAP was induced by activating NF-κB and AP-1 via stimulating HEK-Blue hTLR8 cells with TLR8 ligands. Therefore, the reporter expression was declined by TLR8 antagonist under the stimulation of a ligand, such as R848, for incubation of 20 hrs. The cell culture supernatant SEAP reporter activity was determined using QUANTI-Blue™ kit (Cat.#: rep-qb1, Invivogen, San Diego, Ca, USA) at a wavelength of 640 nm, a detection medium that turns purple or blue in the presence of alkaline phosphatase.
HEK293-Blue-hTLR8 cells were incubated at a density of 250,000-450,000 cells/mL in a volume of 170 µL in a 96-well plate in Dulbecco's Modified Eagle's medium (DMEM) containing 4.5 g/L glucose, 50 U/mL penicillin, […], […], 2 mM L-glutamine, 10% (v/v) heat-inactivated fetal bovine serum with addition of 20 µL test compound in a serial dilution in the presence of final DMSO at 1% and 10 µL of 60uM R848 in above DMEM, perform incubation under 37 °C in a CO2 incubator for 20 hrs. Then 20 µL of the supernatant from each well was incubated with 180 µL Quanti-blue substrate solution at 37°C for 2 hrs and the absorbance was read at 620-655 nm using a spectrophotometer. The signaling pathway that TLR8 activation leads to downstream NF-κB activation has been widely accepted, and therefore similar reporter assay was modified for evaluating TLR8 antagonist.

Consider `C[C@@H]1CN(c2ccc(C#N)c3ncccc23)C[C@H](CN2CCC(Nc3ncc4c(n3)CCNC4)C2)O1` (stereo partly drawn) [Example 57, 5-[(2R,6S)-2-methyl-6-[[3-(5,6,7,8-tetrahydropyrido [4,3-d]pyrimidin-2-ylamino)pyrrolidin-1-yl]methyl]morpholin-4-yl] quinoline-8-carbonitrile], for which the IC50 stood at 37 nM. In the case of `C[C@@H]1CN(c2ccc(C#N)c3ncccc23)C[C@H](CN2CCN(c3ccc4c(n3)CCNC4)C[C@H](O)C2)O1` (single isomer, unassigned) [Example 35A], the IC50 came out at 24 nM. The figure for `CC1NCc2cc(N3CCN(C[C@H]4CN(c5ccc(C#N)c6ncccc56)C[C@@H](C)O4)CC3)ccc21` (stereo partly drawn) [Example 28, 5-[(2R,6S)-2-methyl-6-[[4-(1-methylisoindolin-5-yl)piperazin-1-yl]methyl]morpholin-4-yl]quinoline-8-carbonitrile] is 13 nM. Consider `C[C@@H]1Cc2cnc(N3CCN(C[C@H]4CN(c5ccc(C#N)c6nccnc56)C[C@@H](C)O4)CC3)cc2CN1` (single isomer, unassigned) [Example 82], for which the IC50 was determined as 3 nM. With `C[C@@H]1CN(c2ccc(C#N)c3ncccc23)C[C@H](CN2CCN(c3ccc4c(n3)CN[C@H]4C)CC2)O1` (single isomer, unassigned) [Example 63], the IC50 was found to be 3 nM. Regarding `C[C@@H]1CN(c2ccc(C#N)c3ncccc23)C[C@H](CN2CCN(c3cnc4c(n3)CNCC4)CC2)O1` [Example 40, 5-[(2R,6S)-2-methyl-6-[[4-(5,6,7,8-tetrahydropyrido[3,4-b]pyrazin-3-yl)piperazin-1-yl]methyl]morpholin-4-yl]quinoline-8-carbonitrile], the IC50 came to 4 nM. Take `C[C@@H]1CN(c2ccc(C#N)c3ncccc23)C[C@H](CN2CCN(c3cnc4c(n3)CCNC4)CC2)O1` [Example 17, 5-[(2R,6S)-2-methyl-6-[[4-(5,6,7,8-tetrahydropyrido[3,4-b]pyrazin-2-yl)piperazin-1-yl]methyl]morpholin-4-yl]quinoline-8-carbonitrile]: the IC50 was found to be 4 nM. The figure for `C[C@@H]1CN(c2ccc(C#N)c3ncccc23)C[C@H](CNC2CN(c3cnc4c(c3)CNC4)C2)O1` [Example 43, 5-[(2S,6R)-2-[[[1-(6,7-dihydro-5H-pyrrolo[3,4-b]pyridin-3-yl)azetidin-3-yl]amino]methyl]-6-methyl-morpholin-4-yl]quinoline-8-carbonitrile] is 54 nM. With `C[C@@H]1CN(c2ccc(C#N)c3ncccc23)C[C@H](CN2CCN(c3cccc4c3CNC4)CC2)O1` [Example 2, 5-[(2S,6R)-2-[(4-isoindolin-4-ylpiperazin-1-yl)methyl]-6-methyl-morpholin-4-yl] quinoline-8-carbonitrile], the IC50 came out at 8 nM. The figure for `C[C@@H]1CN(c2ccc(C#N)c3ncccc23)C[C@H](CN2CC3(C2)CN(c2ccc4c(n2)CCNC4)CCO3)O1` [Example 49, 5-[(2R,6S)-2-methyl-6-[[8-(5,6,7,8-tetrahydro-1,6-naphthyridin-2-yl)-5-oxa-2,8-diazaspiro[3.5]nonan-2-yl]methyl]morpholin-4-yl]quinoline-8-carbonitrile] is under 3 nM; for `C[C@@H]1CN(c2ccc(C#N)c3ncccc23)C[C@H](CN2CCN(c3cc4c(cn3)[C@@H](C)NCC4)CC2)O1` (single isomer, unassigned) [Example 73] it is 7 nM; for `C[C@@H]1CN(c2ccc(C#N)c3ncccc23)C[C@H](CN2CCN(c3ccc4c(c3)C(O)CN(C)C4)CC2)O1` (stereo partly drawn) [Example 59, 5-[(2S,6R)-2-[[4-(4-hydroxy-2-methyl-3,4-dihydro-1H-isoquinolin-6-yl)piperazin-1-yl]methyl]-6-methyl-morpholin-4-yl]quinoline-8-carbonitrile] it is 11 nM. With `C[C@@H]1CN(c2ccc(C#N)c3ncccc23)C[C@H](CN2CCN(c3ncnc4c3CNCC4)CC2)O1` [Example 61, 5-[(2R,6S)-2-methyl-6-[[4-(5,6,7,8-tetrahydropyrido[4,3-d]pyrimidin-4-yl)piperazin-1-yl]methyl]morpholin-4-yl]quinoline-8-carbonitrile], the IC50 amounted to 10 nM. For the compound `C[C@@H]1CN(c2ccc(C#N)c3ncccc23)C[C@H](CN2CCN(c3ccc4c(n3)[C@H](C)NC4)CC2)O1` (single isomer, unassigned) [Example 66], the IC50 amounted to 9 nM.

As to `Cc1nc2c(nc1N1CCN(C[C@H]3CN(c4ccc(C#N)c5ncccc45)C[C@@H](C)O3)CC1)CCNC2` [Example 60, 5-[(2R,6S)-2-methyl-6-[[4-(3-methyl-5,6,7,8-tetrahydropyrido[3,4-b]pyrazin-2-yl)piperazin-1-yl]methyl]morpholin-4-yl]quinoline-8-carbonitrile], the IC50 came out at 14 nM. The figure for `C[C@@H]1CN(c2ccc(C#N)c3ncccc23)C[C@H](CN2CC3(C2)CN(c2cc4c(cn2)CCNC4)CCO3)O1` [Example 48, 5-[(2R,6S)-2-methyl-6-[[8-(5,6,7,8-tetrahydro-2,6-naphthyridin-3-yl)-5-oxa-2,8-diazaspiro[3.5]nonan-2-yl]methyl]morpholin-4-yl]quinoline-8-carbonitrile] is 8 nM; for `C[C@@H]1CN(c2ccc(C#N)c3ncccc23)C[C@H](CN2CCN(c3cc4c(cn3)[C@H](C)NCC4)CC2)O1` (single isomer, unassigned) [Example 72] it is 5 nM; for `C[C@@H]1CN(c2ccc(C#N)c3ncccc23)C[C@H](CN2CCN(c3cnc4c(c3)CN[C@@H]4C)CC2)O1` (single isomer, unassigned) [Example 68] it is 16 nM. Under `C[C@@H]1Cc2cc(N3CCN(C[C@H]4CN(c5ccc(C#N)c6nccnc56)C[C@@H](C)O4)CC3)ncc2CN1` (single isomer, unassigned) [Example 83] stands 2 nM; under `C[C@@H]1CN(c2ccc(C#N)c3nccnc23)C[C@H](CN2CCN(c3cc4c(cn3)CCNC4)CC2)O1` [Example 80, 8-[(2R,6S)-2-methyl-6-[[4-(5,6,7,8-tetrahydro-2,6-naphthyridin-3-yl)piperazin-1-yl]methyl]morpholin-4-yl]quinoxaline-5-carbonitrile], 7 nM; under `C[C@@H]1CN(c2ccc(C#N)c3ncccc23)C[C@H](CN2CC3(C2)CN(c2cnc4c(c2)CNCC4)CCO3)O1` [Example 47, 5-[(2R,6S)-2-methyl-6-[[8-(5,6,7,8-tetrahydro-1,6-naphthyridin-3-yl)-5-oxa-2,8-diazaspiro[3.5]nonan-2-yl]methyl]morpholin-4-yl]quinoline-8-carbonitrile], 20 nM. Regarding `C[C@@H]1CN(c2ccc(C#N)c3ncccc23)C[C@H](CN2CCN(c3cc4c(cn3)CN[C@@H](C)C4)CC2)O1` (single isomer, unassigned) [Example 71], the IC50 came out at 4 nM. For the compound `C[C@@H]1CN(c2ccc(C#N)c3nccnc23)C[C@H](CN2CCN(c3cc4c(cn3)C[C@H](C)NC4)CC2)O1` (single isomer, unassigned) [Example 81], the IC50 was 3 nM. With `C[C@@H]1CN(c2ccc(C#N)c3ncccc23)C[C@H](CN2CCN(c3cnc4c(c3)CNCC4)C(C)(C)C2)O1` [Example 56, 5-[(2S,6R)-2-[[3,3-dimethyl-4-(5,6,7,8-tetrahydro-1,6-naphthyridin-3-yl)piperazin-1-yl]methyl]-6-methyl-morpholin-4-yl]quinoline-8-carbonitrile], the IC50 stood at 12 nM.

The values above are taken from patent publication EP3807270B1, “NOVEL HETEROARYL HETEROCYCLYL COMPOUNDS FOR THE TREATMENT OF AUTOIMMUNE DISEASE” (F. Hoffmann-La Roche AG, priority 2018, dated 2019).
